Data on 15 compounds can be found in PubChem BioAssay AID272 (DTP/NCI, 2004).

Several values for one entry are separate records, joined by “and”; a condition that tells them apart may be missing. Equal values may be shown once. Inconclusive results are not listed. Residues, ends and D or L forms follow the SMILES beside them. *: point of attachment. Trt = c1ccc(C(c2ccccc2)(c2ccccc2)*)cc1; Cbz = O=C(OCc1ccccc1)*; Bn = c1ccc(C*)cc1; βAla = NCCC(=O)O

The subject of this assay is Lewis lung carcinoma i.m., BDF1 mice, T/C %. Put plainly: NCI In Vivo Anticancer Drug Screen. Data for tumor model Lewis Lung Carcinoma (intramuscular) in B6D2F1 (BDF1) mice. How it is done:
The antitumor activity of compounds was measured in mice bearing transplantable tumors. Survival or tumor size were measured and the results are expressed as the measurement made in the treated group (T) divided by the measurement made in the vehicle treated control group (C). The tumor model used in this assay is Lewis Lung Carcinoma (intramuscular) in B6D2F1 (BDF1) mice

The mark [1] stands for this setting: endpoint: mean tumor weight (est.), dose: 75.0 mg/kg/injection, schedule: Q01DX011 (ip), vehicle: saline with Tween-80, higher = larger tumour.
Setting [2] is: endpoint: median survival time, dose: 75.0 mg/kg/injection, schedule: Q01DX011 (ip), vehicle: saline with Tween-80, higher = longer survival.

Regarding `Nc1nc(N)c2nc(CNc3ccc(C(=O)NC(CCC(=O)O)C(=O)O)cc3)cnc2n1` (centres undefined), the T/C (endpoint: median survival time, dose: 4.0 micrograms/kg/injection, schedule: Q01DX011 (ip), vehicle: other, higher = longer survival) is 97 % of control; the T/C (endpoint: median survival time, dose: 8.0 micrograms/kg/injection, schedule: Q01DX011 (ip), vehicle: other, higher = longer survival) was 86 % of control; the T/C (endpoint: median survival time, dose: 16.0 micrograms/kg/injection, schedule: Q01DX011 (ip), vehicle: other, higher = longer survival) is 100 % of control; the T/C (endpoint: median survival time, dose: 32.0 micrograms/kg/injection, schedule: Q01DX011 (ip), vehicle: other, higher = longer survival) is 109 % of control; the T/C (endpoint: median survival time, dose: 65.0 micrograms/kg/injection, schedule: Q01DX011 (ip), vehicle: other, higher = longer survival) was 95 % of control.
Regarding `Cc1ccc2c(ccc(C)[n+]2C)c1`, the T/C (endpoint: mean tumor weight (est.), dose: 37.5 mg/kg/injection, schedule: Q01DX011 (ip), vehicle: saline, higher = larger tumour) was 86 % of control and the T/C (endpoint: mean tumor weight (est.), dose: 75.0 mg/kg/injection, schedule: Q01DX011 (ip), vehicle: saline, higher = larger tumour) was 86 % of control.
Regarding `Cc1nc2ccccc2nc1CBr`, the T/C (endpoint: mean tumor weight (est.), dose: 3.2 mg/kg/injection, schedule: Q01DX011 (ip), vehicle: saline with Tween-80, higher = larger tumour) was 64 % of control; the T/C (endpoint: mean tumor weight (est.), dose: 6.3 mg/kg/injection, schedule: Q01DX011 (ip), vehicle: saline with Tween-80, higher = larger tumour) is 80 % of control; the T/C (endpoint: mean tumor weight (est.), dose: 12.5 mg/kg/injection, schedule: Q01DX011 (ip), vehicle: saline with Tween-80, higher = larger tumour) was 56 % of control; the T/C (endpoint: median survival time, dose: 3.2 mg/kg/injection, schedule: Q01DX011 (ip), vehicle: saline with Tween-80, higher = longer survival) was 96 % of control; the T/C (endpoint: median survival time, dose: 6.3 mg/kg/injection, schedule: Q01DX011 (ip), vehicle: saline with Tween-80, higher = longer survival) was 101 % of control; the T/C (endpoint: median survival time, dose: 12.5 mg/kg/injection, schedule: Q01DX011 (ip), vehicle: saline with Tween-80, higher = longer survival) was 88 % of control.
Turning to `O=C1NC(O)CCN1C1OC(CO)C(O)C1O` (centres undefined), the T/C is 89 % of control (endpoint: median survival time, dose: 25.0 mg/kg/injection, schedule: Q01DX011 (ip), vehicle: water, higher = longer survival); 93 % of control (endpoint: median survival time, dose: 50.0 mg/kg/injection, schedule: Q01DX011 (ip), vehicle: water, higher = longer survival); 116 % of control (endpoint: median survival time, dose: 400.0 mg/kg/injection, schedule: Q01DX011 (ip), vehicle: water, higher = longer survival).
`CNC(=S)N/N=C/CCC/C=N/NC(=S)NC`: the T/C was 112 % of control (endpoint: mean tumor weight (est.), dose: 18.75 mg/kg/injection, schedule: Q01DX011 (ip), vehicle: saline with Tween-80, higher = larger tumour); 91 % of control (endpoint: mean tumor weight (est.), dose: 37.5 mg/kg/injection, schedule: Q01DX011 (ip), vehicle: saline with Tween-80, higher = larger tumour); 53 % of control under setting [1]; 90 % of control (endpoint: median survival time, dose: 18.75 mg/kg/injection, schedule: Q01DX011 (ip), vehicle: saline with Tween-80, higher = longer survival); 94 % of control (endpoint: median survival time, dose: 37.5 mg/kg/injection, schedule: Q01DX011 (ip), vehicle: saline with Tween-80, higher = longer survival); 102 % of control under setting [2].
As for `COC(=O)C(CSC(c1ccccc1)(c1ccccc1)c1ccccc1)NC(=O)C(CSCc1ccccc1)NC(=O)CCNC(=O)OCc1ccccc1` (centres undefined) ({Cbz-βAla}-Cys(Bn)-Cys(Trt)-OMe; configuration not given here), the T/C is, setting by setting: (endpoint: median survival time, dose: 4.0 mg/kg/injection, schedule: Q01DX009 (ip), vehicle: Klucel (hydroxypropylcellulose) (HPC), higher = longer survival) 121 % of control; (endpoint: median survival time, dose: 32.0 mg/kg/injection, schedule: Q01DX009 (ip), vehicle: Klucel (hydroxypropylcellulose) (HPC), higher = longer survival) 171 % of control; (endpoint: median survival time, dose: 64.0 mg/kg/injection, schedule: Q01DX009 (ip), vehicle: Klucel (hydroxypropylcellulose) (HPC), higher = longer survival) 161 % of control.
Turning to `Cc1c2c(cc3c1[nH]c1ccccc13)C(c1ccc(Cl)cc1)=NCC2`, the T/C is, setting by setting: under setting [1], 54 % of control; (endpoint: mean tumor weight (est.), dose: 150.0 mg/kg/injection, schedule: Q01DX011 (ip), vehicle: saline with Tween-80, higher = larger tumour) 41 % of control; (endpoint: mean tumor weight (est.), dose: 300.0 mg/kg/injection, schedule: Q01DX011 (ip), vehicle: saline with Tween-80, higher = larger tumour) 40 % of control; under setting [2], 100 % of control; (endpoint: median survival time, dose: 150.0 mg/kg/injection, schedule: Q01DX011 (ip), vehicle: saline with Tween-80, higher = longer survival) 92 % of control; (endpoint: median survival time, dose: 300.0 mg/kg/injection, schedule: Q01DX011 (ip), vehicle: saline with Tween-80, higher = longer survival) 111 % of control.
For `COc1ccc(C(=O)/C(Br)=C/C(=O)O)cc1`, for the setting “endpoint: mean tumor weight, dose: 40.0 mg/kg/injection, schedule: Q01DX011 (ip), vehicle: saline, higher = larger tumour”, the T/C was 48 % of control.
In the case of `Nc1nc(=S)c2[nH]cnc2[nH]1`, the T/C runs as follows: (endpoint: mean tumor weight, dose: 0.12 mg/kg/injection, schedule: Q01DX011 (ip), vehicle: other, higher = larger tumour) 105 % of control; (endpoint: mean tumor weight, dose: 0.25 mg/kg/injection, schedule: Q01DX011 (ip), vehicle: other, higher = larger tumour) 93 % of control; (endpoint: mean tumor weight, dose: 0.5 mg/kg/injection, schedule: Q01DX011 (ip), vehicle: other, higher = larger tumour) 76 % of control; (endpoint: median survival time, dose: 0.12 mg/kg/injection, schedule: Q01DX011 (ip), vehicle: other, higher = longer survival) 97 % of control and 106 % of control; (endpoint: median survival time, dose: 0.25 mg/kg/injection, schedule: Q01DX011 (ip), vehicle: other, higher = longer survival) 116 % of control and 121 % of control; (endpoint: median survival time, dose: 0.5 mg/kg/injection, schedule: Q01DX011 (ip), vehicle: other, higher = longer survival) 116 % of control.
For `CC(SC(C)C(=O)NN)C(=O)NN` (centres undefined), the T/C (endpoint: mean tumor weight (est.), dose: 138.75 mg/kg/injection, schedule: Q01DX011 (ip), vehicle: saline, higher = larger tumour) was 80 % of control; the T/C (endpoint: mean tumor weight (est.), dose: 277.5 mg/kg/injection, schedule: Q01DX011 (ip), vehicle: saline, higher = larger tumour) is 87 % of control; the T/C (endpoint: mean tumor weight (est.), dose: 555.0 mg/kg/injection, schedule: Q01DX011 (ip), vehicle: saline, higher = larger tumour) is 76 % of control; the T/C (endpoint: median survival time, dose: 138.75 mg/kg/injection, schedule: Q01DX011 (ip), vehicle: saline, higher = longer survival) is 90 % of control; the T/C (endpoint: median survival time, dose: 277.5 mg/kg/injection, schedule: Q01DX011 (ip), vehicle: saline, higher = longer survival) was 96 % of control; the T/C (endpoint: median survival time, dose: 555.0 mg/kg/injection, schedule: Q01DX011 (ip), vehicle: saline, higher = longer survival) is 90 % of control.
Regarding `NC(C=O)C(O)C(O)C(O)CO` (centres undefined), the T/C (endpoint: mean tumor weight (est.), dose: 750.0 mg/kg/injection, schedule: Q01DX011 (ip), vehicle: saline, higher = larger tumour) is 77 % of control; the T/C (endpoint: mean tumor weight (est.), dose: 1500.0 mg/kg/injection, schedule: Q01DX011 (ip), vehicle: saline, higher = larger tumour) is 93 % of control; the T/C (endpoint: mean tumor weight (est.), dose: 3000.0 mg/kg/injection, schedule: Q01DX011 (ip), vehicle: saline, higher = larger tumour) is 89 % of control; the T/C (endpoint: median survival time, dose: 1500.0 mg/kg/injection, schedule: Q01DX011 (ip), vehicle: saline, higher = longer survival) was 104 % of control; the T/C (endpoint: median survival time, dose: 3000.0 mg/kg/injection, schedule: Q01DX011 (ip), vehicle: saline, higher = longer survival) was 104 % of control.
For `Cc1n(CC(C)C)c2c([n+]1C)C(=O)c1ccccc1C2=O`, the T/C was 40 % of control (endpoint: mean tumor weight (est.), dose: 2.0 mg/kg/injection, schedule: Q01DX011 (ip), vehicle: saline with Tween-80, higher = larger tumour) and 91 % of control (endpoint: median survival time, dose: 2.0 mg/kg/injection, schedule: Q01DX011 (ip), vehicle: saline with Tween-80, higher = longer survival).
As to `ClC1=NC(Cl)C(Cl)=N/C1=N\c1ncn[nH]1` (centres undefined), the T/C by setting is: (endpoint: median survival time, dose: 4.0 mg/kg/injection, schedule: Q01DX011 (ip), vehicle: saline, higher = longer survival) 108 % of control; (endpoint: median survival time, dose: 8.0 mg/kg/injection, schedule: Q01DX011 (ip), vehicle: saline, higher = longer survival) 91 % of control; (endpoint: median survival time, dose: 16.0 mg/kg/injection, schedule: Q01DX011 (ip), vehicle: saline, higher = longer survival) 92 % of control.
On to `COC1N(C2CC(O)C(CO)O2)C(=O)NC(=O)C1(F)Br` (centres undefined), for which the T/C is 87 % of control (endpoint: mean tumor weight (est.), dose: 5.0 mg/kg/injection, schedule: Q01DX011 (ip), vehicle: saline, higher = larger tumour); 29 % of control (endpoint: mean tumor weight (est.), dose: 10.0 mg/kg/injection, schedule: Q01DX011 (ip), vehicle: saline, higher = larger tumour); 7 % of control (endpoint: mean tumor weight (est.), dose: 20.0 mg/kg/injection, schedule: Q01DX011 (ip), vehicle: saline, higher = larger tumour); 103 % of control (endpoint: median survival time, dose: 5.0 mg/kg/injection, schedule: Q01DX011 (ip), vehicle: saline, higher = longer survival).
`Nc1ncc(N)c(N)n1`: the T/C reads like this: (endpoint: mean tumor weight (est.), dose: 40.0 mg/kg/injection, schedule: Q01DX011 (ip), vehicle: saline, higher = larger tumour) 80 % of control; (endpoint: mean tumor weight (est.), dose: 80.0 mg/kg/injection, schedule: Q01DX011 (ip), vehicle: saline, higher = larger tumour) 88 % of control; (endpoint: mean tumor weight (est.), dose: 160.0 mg/kg/injection, schedule: Q01DX011 (ip), vehicle: saline, higher = larger tumour) 119 % of control; (endpoint: median survival time, dose: 40.0 mg/kg/injection, schedule: Q01DX011 (ip), vehicle: saline, higher = longer survival) 103 % of control; (endpoint: median survival time, dose: 80.0 mg/kg/injection, schedule: Q01DX011 (ip), vehicle: saline, higher = longer survival) 98 % of control; (endpoint: median survival time, dose: 160.0 mg/kg/injection, schedule: Q01DX011 (ip), vehicle: saline, higher = longer survival) 94 % of control.
